According to PubChem BioAssay AID256 (DTP/NCI, 2004):
Where “and” joins values, the source holds several entries; their conditions need not be identical. Equal values may be shown once. Inconclusive results and toxic doses are left out. The calls were made as follows: active = survival T/C of 150% or more; inactive = T/C below 125% in these data.

Test system: CD2F1 mice, L1210 leukemia ip, survival T/C
Test: NCI In Vivo Anticancer Drug Screen. Data for tumor model L1210 Leukemia (intraperitoneal) in CD2F1 (CDF1) mice
Settings: endpoint: mean survival time, higher = longer survival
In short: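 In this screen, transplantable tumors were grown in mice given either the compound or its vehicle. Results were expressed as the treated measurement relative to the control measurement.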

[1] = dose: 50.0 mg/kg/injection, schedule: Q04DX003 (ip), vehicle: saline with Tween-80
[2] = dose: 100.0 mg/kg/injection, schedule: Q04DX003 (ip), vehicle: saline with Tween-80
[3] = dose: 100.0 mg/kg/injection, schedule: Q01DX009 (ip), vehicle: saline with Tween-80
[4] = dose: 200.0 mg/kg/injection, schedule: Q01DX009 (ip), vehicle: saline with Tween-80
[5] = dose: 400.0 mg/kg/injection, schedule: Q01DX009 (ip), vehicle: saline with Tween-80
[6] = dose: 25.0 mg/kg/injection, schedule: Q01DX005 (ip), vehicle: water
[7] = dose: 50.0 mg/kg/injection, schedule: Q01DX005 (ip), vehicle: water
[8] = dose: 100.0 mg/kg/injection, schedule: Q01DX005 (ip), vehicle: water
[9] = dose: 200.0 mg/kg/injection, schedule: Q01DX005 (ip), vehicle: water
[10] = dose: 200.0 mg/kg/injection, schedule: Q04DX003 (ip), vehicle: saline with Tween-80
[11] = dose: 400.0 mg/kg/injection, schedule: Q04DX003 (ip), vehicle: saline with Tween-80
[12] = dose: 100.0 mg/kg/injection, schedule: Q01DX001 (ip), vehicle: saline with Tween-80
[13] = dose: 200.0 mg/kg/injection, schedule: Q01DX001 (ip), vehicle: saline with Tween-80
[14] = dose: 400.0 mg/kg/injection, schedule: Q01DX001 (ip), vehicle: saline with Tween-80
[15] = dose: 100.0 mg/kg/injection, schedule: Q04DX003 (ip), vehicle: saline
[16] = dose: 200.0 mg/kg/injection, schedule: Q04DX003 (ip), vehicle: saline
[17] = dose: 400.0 mg/kg/injection, schedule: Q04DX003 (ip), vehicle: saline

Measured: T/C

Cc1ccc(S(=O)(=O)N2CCn3ncc(C#N)c32)cc1
inactive: dose: 12.5 mg/kg/injection, schedule: Q01DX009 (ip), vehicle: Klucel (hydroxypropylcellulose) (HPC) 98 % of control | dose: 25.0 mg/kg/injection, schedule: Q01DX009 (ip), vehicle: Klucel (hydroxypropylcellulose) (HPC) 95 % of control | dose: 50.0 mg/kg/injection, schedule: Q01DX009 (ip), vehicle: Klucel (hydroxypropylcellulose) (HPC) 97 % of control | dose: 100.0 mg/kg/injection, schedule: Q01DX009 (ip), vehicle: Klucel (hydroxypropylcellulose) (HPC) 87 % of control | dose: 200.0 mg/kg/injection, schedule: Q01DX009 (ip), vehicle: Klucel (hydroxypropylcellulose) (HPC) 89 % of control | dose: 400.0 mg/kg/injection, schedule: Q01DX009 (ip), vehicle: Klucel (hydroxypropylcellulose) (HPC) 95 % of control

O=C(CBr)CC(=O)Nc1ccccc1
inactive: [1] 101 % of control | [2] 88 % of control

O=c1[nH]c(/C=C/C=C/c2ccccc2)c([N+](=O)[O-])c(=O)[nH]1
inactive: dose: 50.0 mg/kg/injection, schedule: Q04DX002 (ip), vehicle: Klucel (hydroxypropylcellulose) (HPC) 98 % of control | dose: 100.0 mg/kg/injection, schedule: Q04DX002 (ip), vehicle: Klucel (hydroxypropylcellulose) (HPC) 91 % of control and 94 % of control | dose: 200.0 mg/kg/injection, schedule: Q04DX002 (ip), vehicle: Klucel (hydroxypropylcellulose) (HPC) 88 % of control and 94 % of control | dose: 400.0 mg/kg/injection, schedule: Q04DX002 (ip), vehicle: Klucel (hydroxypropylcellulose) (HPC) 98 % of control

O=S(=O)(O)c1ccc(N=Nc2ccc(O)cc2)cc1
inactive: dose: 25.0 mg/kg/injection, schedule: Q04DX003 (ip), vehicle: saline with Tween-80 97 % of control | [1] 107 % of control | [2] 100 % of control

CC(=O)NC(C(=O)O)=C(C)C
inactive: [3] 96 % of control | [4] 105 % of control | [5] 96 % of control

CC(C)(C)C1COP(=S)(c2ccccc2)OC1 (stereo unspecified)
inactive: dose: 25.0 mg/kg/injection, schedule: Q04DX003 (ip), vehicle: Klucel (hydroxypropylcellulose) (HPC) 94 % of control and 103 % of control | dose: 50.0 mg/kg/injection, schedule: Q04DX003 (ip), vehicle: Klucel (hydroxypropylcellulose) (HPC) 103 % of control and 97 % of control | dose: 100.0 mg/kg/injection, schedule: Q04DX003 (ip), vehicle: Klucel (hydroxypropylcellulose) (HPC) 97 % of control and 102 % of control

Cc1nc(C(=O)O)c(C)c(=O)[nH]1
inactive: [6] 98 % of control | [7] 104 % of control | [8] 89 % of control | [9] 87 % of control

CC(=O)Oc1ccc2ccccc2c1-c1c(OC(C)=O)ccc2ccccc12
inactive: dose: 25.0 mg/kg/injection, schedule: Q04DX002 (ip), vehicle: saline with Tween-80 101 % of control | dose: 50.0 mg/kg/injection, schedule: Q04DX002 (ip), vehicle: saline with Tween-80 101 % of control | dose: 100.0 mg/kg/injection, schedule: Q04DX002 (ip), vehicle: saline with Tween-80 101 % of control

Nc1ncc[nH]1
inactive: dose: 50.0 mg/kg/injection, schedule: Q01DX001 (ip), vehicle: saline 110 % of control | dose: 100.0 mg/kg/injection, schedule: Q01DX001 (ip), vehicle: saline 108 % of control | dose: 200.0 mg/kg/injection, schedule: Q01DX001 (ip), vehicle: saline 110 % of control | dose: 400.0 mg/kg/injection, schedule: Q01DX001 (ip), vehicle: saline 108 % of control

OCC1OCOC2COCOC12 (stereo unspecified)
inactive: [2] 95 % of control | [10] 98 % of control | [11] 101 % of control

NNC(=O)c1ncn(C2OC(CO)C(O)C2O)c1C(=O)NN (stereo unspecified)
inactive: dose: 12.5 mg/kg/injection, schedule: Q01DX005 (ip), vehicle: water 103 % of control | [6] 101 % of control | [7] 95 % of control | [8] 103 % of control | [9] 97 % of control

O=S(=O)(F)c1ccc(N=C=S)cc1
inactive: dose: 12.5 mg/kg/injection, schedule: Q01DX009 (ip), vehicle: saline with Tween-80 107 % of control | dose: 25.0 mg/kg/injection, schedule: Q01DX009 (ip), vehicle: saline with Tween-80 97 % of control | [2] 94 % of control | [10] 97 % of control | [11] 100 % of control

c1cc[n+](Cc2ccc3ccccc3c2)c(C2OCCO2)c1
inactive: dose: 5.0 mg/kg/injection, schedule: Q01DX009 (ip), vehicle: saline 102 % of control | dose: 10.0 mg/kg/injection, schedule: Q01DX009 (ip), vehicle: saline 102 % of control | dose: 20.0 mg/kg/injection, schedule: Q01DX009 (ip), vehicle: saline 105 % of control

CS(=O)CSCC(N)C(=O)O (stereo unspecified)
inactive: dose: 12.5 mg/kg/injection, schedule: Q01DX009 (ip), vehicle: water 107 % of control | dose: 25.0 mg/kg/injection, schedule: Q01DX009 (ip), vehicle: water 100 % of control | dose: 50.0 mg/kg/injection, schedule: Q01DX009 (ip), vehicle: water 102 % of control | dose: 100.0 mg/kg/injection, schedule: Q01DX009 (ip), vehicle: water 102 % of control | dose: 200.0 mg/kg/injection, schedule: Q01DX009 (ip), vehicle: water 100 % of control

Cc1nn(-c2ccccc2)c2[nH]cnc(=S)c12
inactive: dose: 12.5 mg/kg/injection, schedule: Q01DX005 (ip), vehicle: other 86 % of control | dose: 25.0 mg/kg/injection, schedule: Q01DX005 (ip), vehicle: other 91 % of control | dose: 50.0 mg/kg/injection, schedule: Q01DX005 (ip), vehicle: other 92 % of control | dose: 100.0 mg/kg/injection, schedule: Q01DX005 (ip), vehicle: other 97 % of control | dose: 200.0 mg/kg/injection, schedule: Q01DX005 (ip), vehicle: other 93 % of control

CCCCOC(=O)c1ccc(OC(=O)Nc2ccc(C)cc2[N+](=O)[O-])cc1
inactive: dose: 25.0 mg/kg/injection, schedule: Q01DX009 (ip), vehicle: saline + alcohol 102 % of control | dose: 50.0 mg/kg/injection, schedule: Q01DX001 (ip), vehicle: saline with Tween-80 109 % of control | dose: 50.0 mg/kg/injection, schedule: Q01DX009 (ip), vehicle: saline + alcohol 108 % of control | [12] 113 % of control | dose: 100.0 mg/kg/injection, schedule: Q01DX009 (ip), vehicle: saline + alcohol 103 % of control | [13] 109 % of control | dose: 200.0 mg/kg/injection, schedule: Q01DX009 (ip), vehicle: saline + alcohol 101 % of control | [14] 107 % of control

CC(=O)OC1C(OC(C)=O)C2C(C)(C)CCCC2(C)C2Cc3occc3C(C)C12 (stereo unspecified)
inactive: [1] 96 % of control | dose: 50.0 mg/kg/injection, schedule: Q04DX003 (ip), vehicle: saline 102 % of control | [2] 98 % of control | [15] 98 % of control | [10] 96 % of control | [16] 96 % of control | [11] 91 % of control | [17] 96 % of control

CC(C)(C)OC(=O)Cc1ccccc1
inactive: [12] 91 % of control | [13] 97 % of control | [14] 94 % of control

CCOC(=O)c1csc(-c2csc(CCNC(=O)c3ccccc3)n2)n1
inactive: [12] 97 % of control | [3] 102 % of control | [15] 96 % of control | [13] 98 % of control | [4] 100 % of control | [16] 101 % of control | [14] 101 % of control | [5] 96 % of control | [17] 95 % of control
